Reference: ChEMBL document CHEMBL5523739, “NN1213 - A Potent, Long-Acting, and Selective Analog of Human Amylin” (J Med Chem, 2024)
In brackets after ≈: the same amount, converted by molar mass. Activity calls are given as the source filed them. The rule behind the calls is not given here.

Columns and labels:
[1] = target: T1, Amylin receptor AMY3; CALCR/RAMP3 (Homo sapiens, UniProt O60896+P30988); experiment: Agonist activity at human AMY3R complex of CTR/RAMP3 expressed in Baby hamster kidney cells incubated for 3 hrs followed by medium replacement without compound measured after 30 mins by luciferase reporter assay; format: functional, cell-based, Baby hamster kidney cell
T1 sequence (P30988 whole entry): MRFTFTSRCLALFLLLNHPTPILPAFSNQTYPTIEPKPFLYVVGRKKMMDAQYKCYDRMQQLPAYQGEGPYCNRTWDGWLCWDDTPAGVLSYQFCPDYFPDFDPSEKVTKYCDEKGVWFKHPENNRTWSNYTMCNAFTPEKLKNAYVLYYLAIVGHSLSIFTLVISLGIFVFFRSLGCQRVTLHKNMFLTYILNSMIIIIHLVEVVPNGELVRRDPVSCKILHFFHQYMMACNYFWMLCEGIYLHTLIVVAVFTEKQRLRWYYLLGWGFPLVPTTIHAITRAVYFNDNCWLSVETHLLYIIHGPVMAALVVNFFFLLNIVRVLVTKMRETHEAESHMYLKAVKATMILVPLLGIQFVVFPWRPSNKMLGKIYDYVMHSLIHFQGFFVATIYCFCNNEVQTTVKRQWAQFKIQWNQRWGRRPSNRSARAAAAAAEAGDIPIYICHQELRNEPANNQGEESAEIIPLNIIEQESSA
T1 sequence (O60896 whole entry): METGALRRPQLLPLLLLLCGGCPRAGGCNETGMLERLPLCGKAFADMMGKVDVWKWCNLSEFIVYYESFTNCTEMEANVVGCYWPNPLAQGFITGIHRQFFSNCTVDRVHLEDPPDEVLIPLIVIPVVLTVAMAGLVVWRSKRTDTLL

[2] = Solubility of compound at pH 7.5 incubated overnight by UPLC analysis; format: physicochemical; details: buffer
Rattus norvegicus [3] = experiment: Appetite suppressing activity in rat assessed as reduction in food intake at 3 nmol/kg, sc measured after 24 hrs relative to control; format: functional; parameters: scale not given: the % may be the effect or the level left
Calcitonin receptor [4] = target: T2, Calcitonin receptor (Homo sapiens, UniProt P30988); experiment: Agonist activity at human CTR expressed in Baby hamster kidney cells incubated for 3 hrs followed by medium replacement without compound measured after 30 mins by luciferase reporter assay; format: functional, cell-based, Baby hamster kidney cell
T2 sequence (P30988 whole entry): T1 sequence (P30988 whole entry)

Calcitonin receptor [5] = target: T2, Calcitonin receptor; experiment: Agonist activity at human CTR transduced in human HeLa cells by cAMP assay; format: functional, cell-based
[6] = Terminal half life in Beagle dog at 6 nmol/kg, iv; format: ADME, Canis lupus familiaris; details: in vivo, read-out: beta t1/2 (converted)
Calcitonin receptor [7] = target: T3, Calcitonin receptor (Rattus norvegicus, UniProt P32214); experiment: Displacement of 125I-Calcitonin from rat CTR expressed in Baby hamster kidney cell membrane incubated for 120 mins by SPA method; format: cell membranes
T3 sequence (P32214 whole entry): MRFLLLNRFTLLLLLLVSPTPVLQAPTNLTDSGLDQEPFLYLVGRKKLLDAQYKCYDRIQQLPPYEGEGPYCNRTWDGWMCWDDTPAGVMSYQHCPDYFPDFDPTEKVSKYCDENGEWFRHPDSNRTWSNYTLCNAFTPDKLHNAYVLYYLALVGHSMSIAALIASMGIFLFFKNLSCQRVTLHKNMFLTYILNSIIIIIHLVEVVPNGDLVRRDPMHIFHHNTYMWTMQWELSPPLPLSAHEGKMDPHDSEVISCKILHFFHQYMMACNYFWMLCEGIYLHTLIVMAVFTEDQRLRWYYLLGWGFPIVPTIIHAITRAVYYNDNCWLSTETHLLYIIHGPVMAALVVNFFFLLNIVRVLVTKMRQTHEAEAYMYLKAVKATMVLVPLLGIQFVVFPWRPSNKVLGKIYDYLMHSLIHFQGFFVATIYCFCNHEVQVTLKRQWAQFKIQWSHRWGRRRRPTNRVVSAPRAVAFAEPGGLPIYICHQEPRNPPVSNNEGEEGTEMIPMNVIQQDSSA

Rattus norvegicus [8] = experiment: Appetite suppressing activity in rat assessed as reduction in food intake at 30 nmol/kg, sc measured for 24 to 48 hrs relative to control; format: functional; parameters: scale not given: the % may be the effect or the level left; details: time 24-48 hrs
Rattus norvegicus [9] = experiment: Appetite suppressing activity in rat assessed as reduction in food intake at 100 nmol/kg, sc measured for 48 hrs relative to control; format: functional; parameters: scale not given: the % may be the effect or the level left
Rattus norvegicus [10] = experiment: Appetite suppressing activity in HFD-fed DIO rat model assessed as reduction in food intake at 0.7 to 22 nmol/kg, sc qd measured for 1 to 2 hrs; format: functional, organism-based; details: dose 0.7-22 nmol/kg, time 1-2 hrs
Rattus norvegicus [11] = experiment: Appetite suppressing activity in HFD-fed DIO rat model assessed as reduction in body weight administered subcutaneously once daily measured after 21 days; format: functional, organism-based; details: dose 0.7-22 nmol/kg, route sc, time 21.0 day
Canis familiaris [12] = experiment: Appetite suppressing activity in dog assessed as reduction in food intake administered subcutaneously measured for 48 hrs; format: functional, organism-based; details: Canis lupus familiaris, dose 3-300 nmol/kg, route sc
[13] = […] bioavailability in rat at 2.5 nmol/kg, sc; format: ADME, organism-based; details: in vivo
[14] = Solubility of compound at pH 6 incubated overnight by UPLC analysis; format: physicochemical; details: buffer
Calcitonin receptor [15] = target: T3, Calcitonin receptor; experiment: Agonist activity at rat CTR expressed in Baby hamster kidney cells incubated for 3 hrs by cAMP assay; format: functional, cell-based, Baby hamster kidney cell
Rattus norvegicus [16] = experiment: Appetite suppressing activity in HFD-fed DIO rat model assessed as body weight lost at 0.7 nmol/kg, sc qd measured after 21 days; format: functional; details: time 21 day
Rattus norvegicus [17] = experiment: Appetite suppressing activity in rat assessed as reduction in food intake at 30 nmol/kg, sc measured upto 24 hrs relative to control; format: functional; parameters: scale not given: the % may be the effect or the level left
[18] = Terminal half life in rat at 2.5 nmol/kg, sc; format: ADME; details: in vivo, read-out: beta t1/2 (converted)
Rattus norvegicus [19] = experiment: Appetite suppressing activity in HFD-fed DIO rat model assessed as reduction in food intake at 0.7 nmol/kg, sc qd measured for 21 days relative to control; format: functional; parameters: scale not given: the % may be the effect or the level left; details: time 21 day
[20] = Solubility of compound at pH 5 incubated overnight by UPLC analysis; format: physicochemical; details: buffer
[21] = Stability against amyloid fibril formation at pH 7.5 assessed as lag time at 1 uM measured after 45 hrs by ThT assay; format: physicochemical; details: pH 7.5, 45 h
Canis familiaris [22] = experiment: Appetite suppressing activity in dog assessed as reduction in food intake at 3 nmol/kg, sc measured for 48 hrs; format: functional, organism-based; details: Canis lupus familiaris
Rattus norvegicus [23] = experiment: Appetite suppressing activity in HFD-fed DIO rat model assessed as reduction in body weight administered subcutaneously once daily measured for 21 days; format: functional, organism-based; details: dose 0.7-22 nmol/kg, route sc, time 21.0 day
[24] = target: Calcitonin-gene-related peptide receptor, CALCRL/RAMP1 (Homo sapiens, UniProt O60894+Q16602); experiment: Agonist activity at human CGRPR complex of CRLR/RAMP1 transduced in human HeLa cells by cAMP assay; format: functional, cell-based
Sequence of Calcitonin-gene-related peptide receptor, CALCRL/RAMP1 (O60894 whole entry): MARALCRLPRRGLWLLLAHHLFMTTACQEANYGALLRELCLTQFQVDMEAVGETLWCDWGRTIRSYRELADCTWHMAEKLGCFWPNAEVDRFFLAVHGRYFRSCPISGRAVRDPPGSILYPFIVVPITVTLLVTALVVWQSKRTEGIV
Sequence of Calcitonin-gene-related peptide receptor, CALCRL/RAMP1 (Q16602 whole entry): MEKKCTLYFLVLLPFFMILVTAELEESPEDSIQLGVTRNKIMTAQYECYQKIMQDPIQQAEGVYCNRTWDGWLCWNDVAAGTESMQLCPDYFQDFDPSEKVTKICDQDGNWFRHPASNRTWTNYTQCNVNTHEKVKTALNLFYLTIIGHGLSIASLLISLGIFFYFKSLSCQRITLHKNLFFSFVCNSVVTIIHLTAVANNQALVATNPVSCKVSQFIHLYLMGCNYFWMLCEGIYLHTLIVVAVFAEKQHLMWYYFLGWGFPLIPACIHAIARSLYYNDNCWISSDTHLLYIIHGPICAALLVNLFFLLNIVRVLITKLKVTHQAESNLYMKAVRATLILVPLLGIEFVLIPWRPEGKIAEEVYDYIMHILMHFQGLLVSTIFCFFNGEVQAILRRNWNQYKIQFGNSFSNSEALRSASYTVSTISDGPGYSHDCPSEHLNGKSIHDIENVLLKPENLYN

[25] = Solubility of compound at pH 6.5 incubated overnight by UPLC analysis; format: physicochemical; details: buffer

EC50 [1]: 0.177 nM
solubility [2]: 106 µM (≈ 421 µg/mL)
EC50 (Calcitonin receptor [4]): 5.21 nM
EC50 (Calcitonin receptor [5]): 1.74 nM
half-life [6]: ~76 h
IC50 (Calcitonin receptor [7]): 135 nM
bioavailability [13]: ~40%
solubility [14]: ≥ 200 µM
EC50 (Calcitonin receptor [15]): 102 nM
half-life [18]: ~24 h
solubility [20]: ≥ 200 µM
Time [21]: 42 h
EC50 [24]: 269 nM
solubility [25]: ≥ 200 µM
SMILES: CC[C@H](C)[C@H](NC(=O)[C@H](C)NC(=O)CNC(=O)[C@H](Cc1ccccc1)NC(=O)[C@H](CC(N)=O)NC(=O)[C@@H]1CCCN1C(=O)[C@H](CO)NC(=O)[C@H](CO)NC(=O)[C@H](Cc1c[nH]cn1)NC(=O)[C@H](CCCNC(=N)N)NC(=O)[C@H](CC(C)C)NC(=O)[C@H](Cc1ccccc1)NC(=O)[C@H](CC(=O)O)NC(=O)[C@H](C)NC(=O)[C@H](CC(C)C)NC(=O)[C@H](CCCNC(=N)N)NC(=O)[C@H](CCC(N)=O)NC(=O)[C@@H](NC(=O)[C@H](C)NC(=O)[C@@H]1CSSC[C@H](NC(=O)[C@@H](N)CCCCN)C(=O)N[C@@H](CC(N)=O)C(=O)N[C@@H]([C@@H](C)O)C(=O)N[C@@H](C)C(=O)N[C@@H]([C@@H](C)O)C(=O)N1)[C@@H](C)O)C(=O)N1CCC[C@H]1C(=O)N[C@@H](CO)C(=O)N[C@@H](CO)C(=O)N[C@H](C(=O)N[C@@H](CC(N)=O)C(=O)N[C@H](C(=O)NCC(=O)N[C@@H](CO)C(=O)N[C@@H](CCCNC(=N)N)C(=O)N[C@H](C(=O)N[C@@H](Cc1ccc(O)cc1)C(N)=O)[C@@H](C)O)C(C)C)[C@@H](C)O
Activity (Rattus norvegicus [3]): 25%
Activity (Rattus norvegicus [8]): 50%
Activity (Rattus norvegicus [9]): 70%
Activity (Rattus norvegicus [10]): Active
Activity (Rattus norvegicus [11]): Dose-Dependent Effect
Activity (Canis familiaris [12]): Dose-Dependent Effect
Activity (Rattus norvegicus [16]): 32 g
Activity (Rattus norvegicus [17]): 70%
Activity (Rattus norvegicus [19]): 4.7%
Activity (Canis familiaris [22]): inactive
Activity (Rattus norvegicus [23]): Dose-Dependent Effect
